From PubChem BioAssay AID248 (DTP/NCI, 2004)
Where “and” joins values, the source holds several entries; their conditions need not be identical. Equal values may be shown once. Inconclusive results and toxic doses are left out. Cut-off read from the data, not from the text of the source: active = T/C of 150% or more; inactive = T/C below 125%.

Test system: L1210 leukemia ip in BDF1 mice, survival T/C
Experiment: NCI In Vivo Anticancer Drug Screen. Data for tumor model L1210 Leukemia (intraperitoneal) in B6D2F1 (BDF1) mice
Conditions: endpoint: mean survival time, higher = longer survival
In short: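 Transplantable tumor model; survival measured in treated vs vehicle control mice. Value = treated/control.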

[1] = dose: 100.0 mg/kg/injection, schedule: Q01DX001 (ip), vehicle: saline
[2] = dose: 100.0 mg/kg/injection, schedule: Q01DX009 (ip), vehicle: saline
[3] = dose: 200.0 mg/kg/injection, schedule: Q01DX001 (ip), vehicle: saline
[4] = dose: 200.0 mg/kg/injection, schedule: Q01DX009 (ip), vehicle: saline
[5] = dose: 400.0 mg/kg/injection, schedule: Q01DX001 (ip), vehicle: saline
[6] = dose: 50.0 mg/kg/injection, schedule: Q01DX009 (ip), vehicle: Klucel (hydroxypropylcellulose) (HPC)
[7] = dose: 100.0 mg/kg/injection, schedule: Q01DX009 (ip), vehicle: Klucel (hydroxypropylcellulose) (HPC)
[8] = dose: 200.0 mg/kg/injection, schedule: Q01DX009 (ip), vehicle: Klucel (hydroxypropylcellulose) (HPC)
[9] = dose: 50.0 mg/kg/injection, schedule: Q01DX001 (ip), vehicle: carboxymethylcellulose (CMC)
[10] = dose: 100.0 mg/kg/injection, schedule: Q01DX001 (ip), vehicle: carboxymethylcellulose (CMC)
[11] = dose: 200.0 mg/kg/injection, schedule: Q01DX001 (ip), vehicle: carboxymethylcellulose (CMC)
[12] = dose: 400.0 mg/kg/injection, schedule: Q01DX001 (ip), vehicle: carboxymethylcellulose (CMC)
[13] = dose: 400.0 mg/kg/injection, schedule: Q01DX009 (ip), vehicle: saline
[14] = dose: 100.0 mg/kg/injection, schedule: Q04DX003 (ip), vehicle: saline
[15] = dose: 200.0 mg/kg/injection, schedule: Q04DX003 (ip), vehicle: saline
[16] = dose: 400.0 mg/kg/injection, schedule: Q04DX003 (ip), vehicle: saline
[17] = dose: 100.0 mg/kg/injection, schedule: Q01DX009 (ip), vehicle: saline with Tween-80
[18] = dose: 200.0 mg/kg/injection, schedule: Q01DX009 (ip), vehicle: saline with Tween-80
[19] = dose: 400.0 mg/kg/injection, schedule: Q01DX009 (ip), vehicle: saline with Tween-80

Measured: T/C

COc1ccc(C2C(C(=O)N3CCN(C)CC3)C2c2ccc(OC)cc2)cc1 (stereo not drawn)
inactive: dose: 12.5 mg/kg/injection, schedule: Q04DX002 (ip), vehicle: saline 102 % of control | dose: 25.0 mg/kg/injection, schedule: Q04DX002 (ip), vehicle: saline 102 % of control | dose: 50.0 mg/kg/injection, schedule: Q04DX002 (ip), vehicle: saline 102 % of control

C[N-]C.C[N-]C.[Cl][Pt+2][Cl]
inactive: [1] 113 % of control | [2] 100 % of control | [3] 107 % of control | [4] 88 % of control | [5] 119 % of control

CCCCOC(=O)c1ccc(OC(=O)NC(C)(C)C)cc1
inactive: dose: 25.0 mg/kg/injection, schedule: Q04DX003 (ip), vehicle: gum acacia 102 % of control and 90 % of control | dose: 50.0 mg/kg/injection, schedule: Q04DX003 (ip), vehicle: gum acacia 94 % of control and 102 % of control | dose: 100.0 mg/kg/injection, schedule: Q01DX001 (ip), vehicle: gum acacia 105 % of control | dose: 100.0 mg/kg/injection, schedule: Q04DX003 (ip), vehicle: gum acacia 98 % of control and 100 % of control | dose: 200.0 mg/kg/injection, schedule: Q01DX001 (ip), vehicle: gum acacia 95 % of control | dose: 400.0 mg/kg/injection, schedule: Q01DX001 (ip), vehicle: gum acacia 103 % of control

O=S1(=O)CC23CC=CCC2(CC=CC3)C1 (stereo not drawn)
inactive: [6] 100 % of control | [7] 97 % of control | [8] 96 % of control

O=[N+]([O-])c1ccc(C2OC3CC4C5CCCC5C3C4O2)cc1 (stereo not drawn)
inactive: [9] 87 % of control | [10] 87 % of control | [11] 91 % of control | [12] 91 % of control

CCOc1nc(C)cc(C(=O)O)c1C#N
inactive: dose: 75.0 mg/kg/injection, schedule: Q01DX001 (ip), vehicle: other 95 % of control | dose: 150.0 mg/kg/injection, schedule: Q01DX001 (ip), vehicle: other 100 % of control | dose: 300.0 mg/kg/injection, schedule: Q01DX001 (ip), vehicle: other 103 % of control

O=C1Nc2ccccc2/C1=C/Cl
inactive: dose: 6.25 mg/kg/injection, schedule: Q04DX002 (ip), vehicle: saline with Tween-80 96 % of control | dose: 12.5 mg/kg/injection, schedule: Q04DX002 (ip), vehicle: saline with Tween-80 100 % of control | dose: 25.0 mg/kg/injection, schedule: Q04DX002 (ip), vehicle: saline with Tween-80 103 % of control

O=C1OCC(O)C(O)C(O)C(O)C1O (stereo not drawn)
inactive: [2] 102 % of control | [4] 100 % of control | [13] 102 % of control

O=C1C(=O)c2ccccc2C(O)=C1CC=C1CCCCC1
inactive: dose: 100.0 mg/kg/injection, schedule: Q01DX001 (ip), vehicle: water 100 % of control | dose: 100.0 mg/kg/injection, schedule: Q01DX009 (ip), vehicle: water 103 % of control | dose: 200.0 mg/kg/injection, schedule: Q01DX009 (ip), vehicle: water 98 % of control | dose: 400.0 mg/kg/injection, schedule: Q01DX001 (ip), vehicle: water 108 % of control

O=C(OCC#CCOC(=O)C(Cl)Cl)C(Cl)Cl
inactive: [2] 107 % of control | [4] 91 % of control | [13] 94 % of control

O=C(Nc1cccc(Cl)c1)Nc1ccccc1C(F)(F)F
inactive: [9] 104 % of control | [10] 106 % of control | [11] 106 % of control | [12] 101 % of control

C=C(C)C1CC=C(C)CC1 (stereo not drawn)
inactive: [1] 111 % of control | [2] 91 % of control | [14] 110 % of control | [3] 105 % of control | [15] 97 % of control | [5] 111 % of control | [16] 97 % of control

CCOc1ccc(C(=N)N2CCN(C)CC2)c2ccccc12
inactive: dose: 4.2 mg/kg/injection, schedule: Q01DX Z (ip), vehicle: methylcellulose (MC) 104 % of control | dose: 6.3 mg/kg/injection, schedule: Q01DX Z (ip), vehicle: methylcellulose (MC) 103 % of control | dose: 9.5 mg/kg/injection, schedule: Q01DX Z (ip), vehicle: methylcellulose (MC) 97 % of control | dose: 14.3 mg/kg/injection, schedule: Q01DX Z (ip), vehicle: methylcellulose (MC) 106 % of control

O=C(O)c1ccccc1S(=O)(=O)c1ccccc1
inactive: [17] 109 % of control | [18] 101 % of control | [19] 103 % of control

CC1(C)OCC2SC(n3cnc4c(N)ncnc43)C(OS(C)(=O)=O)C2O1 (stereo not drawn)
inactive: dose: 100.0 mg/kg/injection, schedule: Q01DX005 (ip), vehicle: saline 97 % of control | dose: 200.0 mg/kg/injection, schedule: Q01DX005 (ip), vehicle: saline 90 % of control

CC(=O)Nc1ccc(NC(=S)NC(=O)COc2ccccc2)cc1
inactive: dose: 50.0 mg/kg/injection, schedule: Q04DX002 (ip), vehicle: saline with Tween-80 102 % of control and 105 % of control | dose: 100.0 mg/kg/injection, schedule: Q01DX001 (ip), vehicle: saline with Tween-80 107 % of control | [17] 102 % of control and 91 % of control | dose: 100.0 mg/kg/injection, schedule: Q04DX003 (ip), vehicle: saline with Tween-80 97 % of control | dose: 200.0 mg/kg/injection, schedule: Q01DX001 (ip), vehicle: saline with Tween-80 98 % of control | [18] 95 % of control and 98 % of control | dose: 200.0 mg/kg/injection, schedule: Q04DX003 (ip), vehicle: saline with Tween-80 90 % of control | dose: 400.0 mg/kg/injection, schedule: Q01DX001 (ip), vehicle: saline with Tween-80 97 % of control | [19] 101 % of control and 87 % of control | dose: 400.0 mg/kg/injection, schedule: Q04DX003 (ip), vehicle: saline with Tween-80 95 % of control

CCOC1CC2c3ccccc3C1c1cccc[n+]12 (stereo not drawn)
inactive: dose: 12.5 mg/kg/injection, schedule: Q01DX009 (ip), vehicle: saline 100 % of control | dose: 12.5 mg/kg/injection, schedule: Q04DX003 (ip), vehicle: saline 100 % of control and 94 % of control | dose: 25.0 mg/kg/injection, schedule: Q01DX009 (ip), vehicle: saline 98 % of control | dose: 25.0 mg/kg/injection, schedule: Q04DX003 (ip), vehicle: saline 89 % of control and 101 % of control | dose: 50.0 mg/kg/injection, schedule: Q01DX009 (ip), vehicle: saline 94 % of control and 96 % of control | dose: 50.0 mg/kg/injection, schedule: Q04DX003 (ip), vehicle: saline 97 % of control and 101 % of control | dose: 75.0 mg/kg/injection, schedule: Q01DX009 (ip), vehicle: saline 88 % of control | [14] 98 % of control | [15] 107 % of control | [16] 86 % of control

S=c1[nH]c2ccccc2c2ccccc12
inactive: [6] 96 % of control | [7] 105 % of control | dose: 100.0 mg/kg/injection, schedule: Q04DX003 (ip), vehicle: Klucel (hydroxypropylcellulose) (HPC) 97 % of control | [8] 97 % of control | dose: 200.0 mg/kg/injection, schedule: Q04DX003 (ip), vehicle: Klucel (hydroxypropylcellulose) (HPC) 90 % of control | dose: 400.0 mg/kg/injection, schedule: Q04DX003 (ip), vehicle: Klucel (hydroxypropylcellulose) (HPC) 95 % of control
